Results from ChEMBL document CHEMBL5661943, “ASAP - In vitro antiviral effect” (2024).

How the values were obtained:
[1] = system: Zika virus; test: Functional CPE-based assay to measure dose dependent changes in antiviral-drug inhibitory efficacy against Zika virus MR766 in Vero E6 miRFP670 cells (cotreated with P-gp inhibitor, CP100356). Cells are treated with antiviral candidates that are serially diluted. EC50 is reported via analysis of MTS assay as a readout of CPE. The assay has been performed by KU Leuven.; format: organism-based, Chlorocebus sabaeus, Vero C1008; conditions: Zika virus; for EC90: P-gp concentration 500 nM, P-gp inhibitor CP100356
[2] = system: Zika virus; test: Functional CPE-based assay to measure dose dependent changes in antiviral-drug inhibitory efficacy against Zika virus MR766 in Vero E6 miRFP670 cells. Cells are treated with antiviral candidates that are serially diluted. EC50 is reported via analysis of MTS assay as a readout of CPE. The assay has been performed by KU Leuven.; format: organism-based, Chlorocebus sabaeus, Vero C1008; conditions: Zika virus; for EC50: Vero C1008
[3] = system: dengue virus type 2; test: Functional assay to measure dose dependent changes in antiviral-drug inhibitory efficacy against Dengue virus type 2 New Guinea C in Vero E6 miRFP670 cells (cotreated with P-gp inhibitor, CP100356). Cells are treated with antiviral candidates that are serially diluted, following infection, cells are fixed. EC50 is reported via analysis of fluorescence intensity using high-content imager. The …; format: organism-based, Chlorocebus sabaeus, Vero C1008
[4] = system: Zika virus; test: EC50 is reported via analysis of immunofluorescence staining. The assay has been performed by Icahn School of Medicine at Mount Sinai.; format: functional, organism-based, Chlorocebus sabaeus, VeroE6/TMPRSS2; conditions: Zika virus, VeroE6/TMPRSS2

## O=C1Cc2c(cccc2C(=O)Nc2ccc3c(c2)CNC3)N1
[1]; Vero C1008
  EC50: > 50 µM
[1]; Vero C1008, Baseline response 0 %, Hill slope 0.131, Maximum measured 3.439 %, Maximum response 100 %, Minimum measured 0.392 %, R squared 0.059
  EC90: > 50 µM
[2]
  EC50: > 50 µM
[2]; Vero C1008, Baseline response 0 %, Hill slope 0.284, Maximum measured 8.076 %, Maximum response 100 %, Minimum measured -0.771 %, R squared 0.143
  EC90: > 50 µM
[3]; Dengue virus, Vero C1008
  EC50: > 50 µM
[3]; Dengue virus, Vero C1008, Maximum measured 146.808 %, Minimum measured 90.834 %, P-gp concentration 500 nM, P-gp inhibitor CP100356
  EC90: > 50 µM

## O=C(Nc1ccc(C2CNC2)cc1)c1cc(Cl)cc2[nH]ncc12
[2]
  EC50: > 50 µM
[2]; Vero C1008, Maximum measured 1.247 %, Minimum measured -2.682 %
  EC90: > 50 µM
[3]; Dengue virus, Vero C1008
  EC50: 8.78 µM
[3]; Dengue virus, Vero C1008, Baseline response 0 %, EC90 CI (lower) 1.814 uM, EC90 CI (upper) 3.53 uM, Hill slope -1.767, Maximum measured 103.682 %, Maximum response 100 %, Minimum measured 12.273 %, P-gp concentration 500 nM, R squared 0.972, P-gp inhibitor CP100356
  EC90: 30.4 µM

## Cn1ncc2c(C(=O)Nc3ccc4c(c3)CNC4)cc(Br)cc21
[2]
  EC50: > 50 µM
[2]; Vero C1008, Baseline response 0 %, Hill slope 2.334, Maximum measured 28.881 %, Maximum response 100 %, Minimum measured -5.706 %, R squared 0.821
  EC90: > 50 µM
[3]; Dengue virus, Vero C1008
  EC50: < 0.391 µM
[3]; Dengue virus, Vero C1008, Baseline response 0 %, Hill slope 1.42, Maximum measured 130.593 %, Maximum response 100 %, Minimum measured 71.5 %, P-gp concentration 500 nM, R squared 0.202, P-gp inhibitor CP100356
  EC90: < 0.391 µM

## CCc1nc2c(C(=O)Nc3ccc4c(c3)CNC4)cc(Br)cc2[nH]1
[2]
  EC50: > 50 µM
[2]; Vero C1008, Baseline response 0 %, Hill slope 0.303, Maximum measured 9.479 %, Maximum response 100 %, Minimum measured 2.16 %, R squared 0.852
  EC90: > 50 µM
[3]; Dengue virus, Vero C1008
  EC50: > 50 µM
[3]; Dengue virus, Vero C1008, Maximum measured 122.691 %, Minimum measured 98.084 %, P-gp concentration 500 nM, P-gp inhibitor CP100356
  EC90: > 50 µM
[4]
  EC50: > 5.56 µM
[4]; Baseline response 0 %, Hill slope 0.058, Maximum measured 88.326 %, Maximum response 100 %, Minimum measured 53.216 %, P-gp concentration 2 uM, R squared 0.024, P-gp inhibitor Elacidar
  EC90: > 5.56 µM

## NCCc1ccc([C@H]2C[C@@H]2c2cc(Cl)cc(NC(=O)OCc3ccccc3)c2)cc1
[1]; Vero C1008
  EC50: > 50 µM
[1]; Vero C1008, Maximum measured 6.997 %, Minimum measured -5.737 %
  EC90: > 50 µM
[2]
  EC50: > 50 µM
[2]; Vero C1008, Maximum measured 1.279 %, Minimum measured -5.481 %
  EC90: > 50 µM
[3]; Dengue virus, Vero C1008
  EC50: > 3.12 µM
[3]; Dengue virus, Vero C1008, Maximum measured 120.903 %, Minimum measured 100.357 %, P-gp concentration 500 nM, P-gp inhibitor CP100356
  EC90: > 3.12 µM
[3]; Dengue virus, Vero C1008, Maximum measured 221.095 %, Minimum measured 80.639 %, P-gp concentration 500 nM, P-gp inhibitor CP100356
  EC90: > 6.25 µM
[3]; vero c1008
  EC50: > 6.25 µM

## O=C(Nc1cc(Cl)cc(C(=O)Nc2ccc(C3CCNCC3)cc2)c1)OCc1ccccc1
[1]; Vero C1008
  EC50: > 50 µM
[1]; Vero C1008, Maximum measured 2.883 %, Minimum measured -3.299 %
  EC90: > 50 µM
[2]
  EC50: > 50 µM
[2]; Vero C1008, Maximum measured […], Minimum measured -3.389 %
  EC90: > 50 µM
[3]; Baseline response 0 %, Hill slope -20.516, Maximum measured 137.543 %, Maximum response 100 %, Minimum measured 2.498 %, P-gp concentration 500 nM, R squared 0.862, P-gp inhibitor CP100356
  EC90: 1.68 µM
[3]; Dengue virus, Vero C1008
  EC50: 2.86 µM
  EC90: 3.23 µM
[3]; vero c1008
  EC50: 1.51 µM

## O=C(Nc1cc(Cl)cc(-c2ccc3cc(C(=O)O)[nH]c3c2)c1)OCc1ccccc1
[1]; Vero C1008
  EC50: > 50 µM
[1]; Vero C1008, Baseline response 0 %, Hill slope 0.219, Maximum measured 11.412 %, Maximum response 100 %, Minimum measured -1.306 %, R squared 0.087
  EC90: > 50 µM
[2]
  EC50: > 50 µM
[2]; Vero C1008, Maximum measured -0.377 %, Minimum measured -2.566 %
  EC90: > 50 µM
[3]; Dengue virus, Vero C1008
  EC50: 27.6 µM
[3]; Dengue virus, Vero C1008, Baseline response 0 %, Hill slope -2.588, Maximum measured 127.292 %, Maximum response 100 %, Minimum measured 18.339 %, P-gp concentration 500 nM, R squared 0.622, P-gp inhibitor CP100356
  EC90: > 50 µM

## NCc1cccc(NC(=O)c2cc(Cl)cc(C(N)=O)c2)c1
[2]
  EC50: < 0.391 µM
[2]; Vero C1008, Baseline response 0 %, Hill slope -0.109, Maximum measured 5.527 %, Maximum response 100 %, Minimum measured 1.124 %, R squared 0.046
  EC90: < 0.391 µM
[3]; Dengue virus, Vero C1008
  EC50: > 50 µM
[3]; Dengue virus, Vero C1008, Maximum measured 162.876 %, Minimum measured 96.337 %, P-gp concentration 500 nM, P-gp inhibitor CP100356
  EC90: > 50 µM

## NCc1cc(NC(=O)c2cc(Cl)cc(NC(=O)OCc3ccccc3)c2)cc([C@@H]2C[C@H]2C(=O)O)c1
[2]
  EC50: > 50 µM
[2]; Vero C1008, Maximum measured -4.084 %, Minimum measured -7.869 %
  EC90: > 50 µM
[3]; Dengue virus, Vero C1008
  EC50: > 12.5 µM
[3]; Dengue virus, Vero C1008, Maximum measured 109.098 %, Minimum measured 97.886 %, P-gp concentration 500 nM, P-gp inhibitor CP100356
  EC90: > 12.5 µM

## CNC(=O)[C@H](Nc1cc(CN)cc(C(=O)O)c1)c1cc(Cl)cc(C2CC2)c1
[2]
  EC50: > 50 µM
[2]; Vero C1008, Maximum measured 1.859 %, Minimum measured -2.673 %
  EC90: > 50 µM
[3]; Dengue virus, Vero C1008
  EC50: > 50 µM
[3]; Dengue virus, Vero C1008, Maximum measured 120.74 %, Minimum measured 102.141 %, P-gp concentration 500 nM, P-gp inhibitor CP100356
  EC90: > 50 µM

## C[C@@]1(c2cccc(CN)c2)C[C@H]1c1cc(Cl)cc(NC(=O)OCc2ccccc2)c1
[2]
  EC50: > 50 µM
[2]; Vero C1008, Maximum measured 2.64 %, Minimum measured -3.015 %
  EC90: > 50 µM
[3]; Dengue virus, Vero C1008
  EC50: 2.11 µM
[3]; Dengue virus, Vero C1008, Baseline response 0 %, Hill slope -1.211, Maximum measured 80.402 %, Maximum response 100 %, Minimum measured 6.127 %, P-gp concentration 500 nM, R squared 0.862, P-gp inhibitor CP100356
  EC90: > 6.25 µM

## OCC#C[C@H](Nc1ccc2c(c1)CNC2)c1cc(Cl)cc2[nH]ncc12
[2]
  EC50: > 50 µM
[2]; Vero C1008, Baseline response 0 %, Hill slope -0.322, Maximum measured 7.802 %, Maximum response 100 %, Minimum measured -1.073 %, R squared 0.225
  EC90: > 50 µM
[2]; Vero C1008, Maximum measured -0.957 %, Minimum measured -6.863 %
  EC90: > 50 µM
[3]; Dengue virus, Vero C1008
  EC50: > 50 µM
[3]; Dengue virus, Vero C1008, Baseline response 0 %, Hill slope -0.86, Maximum measured 99.542 %, Maximum response 100 %, Minimum measured 57.079 %, P-gp concentration 500 nM, R squared 0.671, P-gp inhibitor CP100356
  EC90: > 50 µM

## O=C(O)c1cc2cc(-c3cc(Cl)cc(C4CC4)c3)ccc2[nH]1
[1]; Vero C1008
  EC50: > 50 µM
[1]; Vero C1008, Baseline response 0 %, Hill slope 0.262, Maximum measured 7.755 %, Maximum response 100 %, Minimum measured -1.169 %, R squared 0.013
  EC90: > 50 µM
[2]
  EC50: > 50 µM
[2]; Vero C1008, Baseline response 0 %, Hill slope 0.633, Maximum measured 10.894 %, Maximum response 100 %, Minimum measured 0.566 %, R squared 0.67
  EC90: > 50 µM
[3]; Dengue virus, Vero C1008
  EC50: 45.8 µM
[3]; Dengue virus, Vero C1008, Baseline response 0 %, Hill slope -21.982, Maximum measured 163.66 %, Maximum response 100 %, Minimum measured 12.537 %, P-gp concentration 500 nM, R squared 0.152, P-gp inhibitor CP100356
  EC90: > 50 µM

## CCc1cc(Br)cc2c(Cc3ccc(-c4nnn[nH]4)cc3)c[nH]c12
[1]; Vero C1008
  EC50: > 50 µM
[1]; Vero C1008, Maximum measured 2.453 %, Minimum measured -6.07 %
  EC90: > 50 µM
[2]
  EC50: > 50 µM
[2]; Vero C1008, Baseline response 0 %, Hill slope -0.347, Maximum measured 5.052 %, Maximum response 100 %, Minimum measured -3.467 %, R squared 0.177
  EC90: > 50 µM
[2]; Vero C1008, Maximum measured -3.488 %, Minimum measured -8.239 %
  EC90: > 50 µM
[3]; Baseline response 0 %, Hill slope -20.83, Maximum measured 154.882 %, Maximum response 100 %, Minimum measured 18.569 %, P-gp concentration 500 nM, R squared 0.389, P-gp inhibitor CP100356
  EC90: > 25 µM
[3]; Dengue virus, Vero C1008
  EC50: 24.8 µM
[3]; Dengue virus, Vero C1008, Baseline response 0 %, Hill slope -25.951, Maximum measured 114.444 %, Maximum response 100 %, Minimum measured 0.23 %, P-gp concentration 500 nM, R squared 0.943, P-gp inhibitor CP100356
  EC90: 26.9 µM
[3]; vero c1008
  EC50: 23.3 µM

## CNC(=O)[C@H](Nc1cc(CN)cc(C(=O)O)c1)c1cc(Cl)cc(NC(=O)OCc2ccccc2)c1
[2]
  EC50: > 50 µM
[2]; Vero C1008, Baseline response 0 %, Hill slope -2.362, Maximum measured 1.225 %, Maximum response 100 %, Minimum measured -2.193 %, R squared 0.027
  EC90: > 50 µM
[3]; Dengue virus, Vero C1008
  EC50: > 50 µM
[3]; Dengue virus, Vero C1008, Maximum measured 124.943 %, Minimum measured 103.159 %, P-gp concentration 500 nM, P-gp inhibitor CP100356
  EC90: > 50 µM
